Assay results as given in patent publication US8455214B2, “Methods for determining chemotherapeutic agents targeting alpha-glucan pathways and uses thereof” (priority 2009, dated 2013).

Test system: Mtb ΔRv3032 mutant
Type: cell-based

SMILES: OCC1=C[C@@H](N[C@H]2C[C@H](CO)[C@@H](O[C@H]3O[C@@H](CO)[C@H](O)[C@@H](O)[C@@H]3O)[C@H](O)[C@H]2O)[C@H](O)[C@@H](O)[C@@H]1O [VA, Validamycin A]
- killing (reduction of viability, CFU) (over 7 days, cultures inoculated at 5×10^6 CFU/ml): 3 log
- effect of over-expression of the putative target TreS (ΔRv3032 mutant with TreS from an integrative single-copy plasmid): marked resistance
